How the values were obtained:
[1] = test system: MCF-7 (human breast cancer) cell line; assay: MTT cell proliferation (cytotoxicity) assay, MCF-7; assay type: cell-based; details: Homo sapiens, MCF7, 72 h, average of two separate determinations
Method: (§1) Taking GDC-0941 as reference compound, the target compounds […], 12a–j, 13a–g and 14a–g ere evaluated for the cytotoxicity against the three cancer cell lines A549, PC-3 and MCF-7 usg 3-(4,5-dimethylthiazolyl-2)-2,5-diphenyltetrazolium bromide (MTT) cell proliferation assays. In addition, one selected compounds 12h was fher evaluated for PI3Kα kinase inhibitory activity. The results, expressed as IC50 values or inhibitory rate, are sumrized in Table 1, Table 2 and Table 3.
(§2) The in vitro cytotoxic activities of all the compounds 11a–11j, 12a–12j, 13a–13g and 14a–14g was evaluated with A549, PC-3 and MCF-7 cell lines by the standard MTT assay, with GDC-0941 as positive control. The cancer cell lines were cultured in minimum essential medium (MEM) supplement with 10% fetal bovine serum (FBS). Approximately 4 × 10^3 cells, suspended in MEM medium, were plated onto each well of a 96-well plate and incubated in 5% CO2 at 37 °C for 24 h. The test compounds at indicated final concentrations were added to the culture medium and the cell cultures were continued for 72 h. Fresh MTT was added to each well at a terminal concentration of […] and incubated with cells at 37 °C for 4 h. The formazan crystals were dissolved in 100 µL DMSO each well, and the absorbency at 492 nm (for absorbance of MTT formazan) and 630 nm (for the reference wavelength) was measured with an ELISA reader. All of the compounds were tested three times in each of the cell lines. The results expressed as inhibition rates or IC50 (half-maximal inhibitory concentration) were the averages of two determinations and calculated by using the Bacus Laboratories Inc. Slide Scanner (Bliss) software (the Bacus Laboratories Inc. Slide Scanner (BLISS) system, Lombard, IL, USA).

[2] = test system: PC-3 (human prostatic cancer) cell line; assay: MTT cell proliferation (cytotoxicity) assay, PC-3; assay type: cell-based; details: Homo sapiens, 72 h, average of two separate determinations
Method: as §1, §2

[3] = test system: A549 (human lung cancer) cell line; assay: MTT cell proliferation (cytotoxicity) assay, A549; assay type: cell-based; details: Homo sapiens, A549, 72 h, average of two separate determinations
Method: as §1, §2

PI3Kα = PI3Kα (Homo sapiens, UniProt P42336); assay: PI3Kα Kinase-Glo Luminescent Kinase Assay; assay type: biochemical
Chain of PI3Kα (P42336 whole entry): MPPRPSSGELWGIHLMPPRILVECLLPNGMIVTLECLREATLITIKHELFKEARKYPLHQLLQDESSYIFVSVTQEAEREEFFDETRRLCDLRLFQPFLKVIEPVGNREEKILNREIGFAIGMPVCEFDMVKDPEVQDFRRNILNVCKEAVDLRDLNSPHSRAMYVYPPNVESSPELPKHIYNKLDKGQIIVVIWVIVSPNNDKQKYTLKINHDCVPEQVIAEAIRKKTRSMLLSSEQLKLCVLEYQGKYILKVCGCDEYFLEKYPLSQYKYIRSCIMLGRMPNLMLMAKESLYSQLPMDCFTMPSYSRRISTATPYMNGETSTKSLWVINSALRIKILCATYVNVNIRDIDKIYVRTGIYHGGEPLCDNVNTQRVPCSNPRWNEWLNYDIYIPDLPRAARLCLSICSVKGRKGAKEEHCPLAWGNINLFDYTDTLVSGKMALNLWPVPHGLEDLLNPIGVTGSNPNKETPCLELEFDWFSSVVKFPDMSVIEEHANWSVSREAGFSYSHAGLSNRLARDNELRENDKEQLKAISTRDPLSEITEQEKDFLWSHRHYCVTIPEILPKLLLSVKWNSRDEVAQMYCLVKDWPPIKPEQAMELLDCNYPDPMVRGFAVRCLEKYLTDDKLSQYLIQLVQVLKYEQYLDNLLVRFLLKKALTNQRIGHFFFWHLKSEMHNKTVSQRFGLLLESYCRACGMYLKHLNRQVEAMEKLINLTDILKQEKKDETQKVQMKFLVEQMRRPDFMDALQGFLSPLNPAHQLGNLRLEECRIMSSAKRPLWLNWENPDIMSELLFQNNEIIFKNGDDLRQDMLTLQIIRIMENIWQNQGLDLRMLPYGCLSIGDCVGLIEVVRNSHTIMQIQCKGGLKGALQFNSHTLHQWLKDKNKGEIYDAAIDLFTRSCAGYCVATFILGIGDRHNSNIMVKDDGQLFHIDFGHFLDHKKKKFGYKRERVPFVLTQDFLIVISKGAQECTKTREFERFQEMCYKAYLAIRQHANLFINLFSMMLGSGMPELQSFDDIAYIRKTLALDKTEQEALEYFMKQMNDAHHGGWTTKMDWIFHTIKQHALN
Chain of PI3Kα (P27986 whole entry partner): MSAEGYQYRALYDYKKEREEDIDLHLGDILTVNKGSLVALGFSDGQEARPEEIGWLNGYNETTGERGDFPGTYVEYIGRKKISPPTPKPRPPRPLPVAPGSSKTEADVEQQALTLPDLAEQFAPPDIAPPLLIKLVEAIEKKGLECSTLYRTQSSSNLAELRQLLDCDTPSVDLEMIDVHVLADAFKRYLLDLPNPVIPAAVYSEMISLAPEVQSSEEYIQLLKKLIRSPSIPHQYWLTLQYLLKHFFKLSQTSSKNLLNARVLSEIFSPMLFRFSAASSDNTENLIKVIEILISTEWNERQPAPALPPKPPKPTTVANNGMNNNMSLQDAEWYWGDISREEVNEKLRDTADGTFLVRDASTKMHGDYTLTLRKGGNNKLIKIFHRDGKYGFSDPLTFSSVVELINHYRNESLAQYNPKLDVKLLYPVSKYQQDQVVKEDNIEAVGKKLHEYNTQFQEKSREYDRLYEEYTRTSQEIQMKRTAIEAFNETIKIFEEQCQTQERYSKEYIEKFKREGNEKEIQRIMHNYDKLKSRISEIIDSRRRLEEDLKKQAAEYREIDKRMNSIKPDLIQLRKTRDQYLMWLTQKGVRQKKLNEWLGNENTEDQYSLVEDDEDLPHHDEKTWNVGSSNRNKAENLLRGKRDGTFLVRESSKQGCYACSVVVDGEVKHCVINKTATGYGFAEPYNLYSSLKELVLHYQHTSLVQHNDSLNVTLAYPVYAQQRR

**Q.** With CCc1ccc(-c2ccnc(C(=O)Nc3ccc(-c4nc5c(c(N6CCOCC6)n4)CS(=O)(=O)CC5)cc3)c2)cc1 [Compound 12h, N-(4-(4-Morpholino-7,8-dihydro-6,6-dioxide-5H-thiopyrano[4,3-d]pyrimidin-2-yl)phenyl)-4-(4-ethylphenyl) picolinamide] as the compound, how does the melting point read?
**A.** Its melting point is 276.8 to 279.1 °C.

**Q.** What about the IC50 ([1]; Table 1) of the same compound?
**A.** Its IC50 is 9.26 ± 0.82 µM.

**Q.** And the IC50 ([2]; Table 1)?
**A.** The IC50 was 11.34 ± 0.11 µM.

**Q.** What about the IC50 ([3]; Table 1) of the same compound?
**A.** Its IC50 is 8.37 ± 0.1 µM.

**Q.** What about the IC50 (PI3Kα; Kinase-Glo, 1 µM ATP, 60 min, average of two separate determinations) of the same compound?
**A.** Its IC50 is 7.39 ± 0.194 µM.

**Q.** What about the “inhibitory rate against PI3Ka kinase” value (PI3Kα; at 10 µM, in words) of the same compound?
**A.** The value was “moderate”.

**Q.** With O=C(Nc1ccc(-c2nc3c(c(N4CCOCC4)n2)CS(=O)(=O)CC3)cc1)c1cc(-c2ccc(Br)cc2)ncn1 [Compound 14e] as the compound, how does the melting point read?
**A.** The melting point was greater than 300 °C.

**Q.** And the IC50 ([1]; Table 2)?
**A.** Its IC50 is 27.4 ± 1.27 µM.

**Q.** And the IC50 ([2]; Table 2)?
**A.** Its IC50 is greater than 100 µM.

**Q.** And the IC50 ([3]; Table 2)?
**A.** The IC50 was greater than 100 µM.

**Q.** Which melting point does the source give for O=C(Nc1ccc(-c2nc3c(c(N4CCOCC4)n2)CS(=O)(=O)CC3)cc1)c1cc(-c2ccc(Cl)cc2)ncn1 [Compound 14f] here?
**A.** The melting point was greater than 300 °C.

**Q.** What about the IC50 ([1]; Table 2) of the same compound?
**A.** Its IC50 is greater than 100 µM.

**Q.** What about the IC50 ([2]; Table 2) of the same compound?
**A.** Its IC50 is greater than 100 µM.

**Q.** What about the IC50 ([3]; Table 2) of the same compound?
**A.** The IC50 was greater than 100 µM.

**Q.** For O=C(Nc1ccc(-c2nc3c(c(N4CCOCC4)n2)CS(=O)(=O)CC3)cc1)c1cc(-c2ccccc2)ncn1 [Compound 14g], which melting point is on record?
**A.** Its melting point is 294.2 to 296.6 °C.

**Q.** What about the IC50 ([1]; Table 2) of the same compound?
**A.** Its IC50 is greater than 100 µM.

**Q.** And the IC50 ([2]; Table 2)?
**A.** The IC50 was greater than 100 µM.

**Q.** What about the IC50 ([3]; Table 2) of the same compound?
**A.** Its IC50 is greater than 100 µM.

From article PMC6273168, “Synthesis and Biological Evaluation of Novel 4-Morpholino-7,8-dihydro-5H-thiopyrano[4,3-d]pyrimidine Derivatives Bearing Phenylpyridine/ Phenylpyrimidine-Carboxamides” (Molecules, 2016)
